Test results reported in patent publication US10301294B2, “Compounds for the treatment of tuberculosis” (priority 2013, dated 2019).
pIC50: −log10 of the molar value.

Key:
Type in all cases: cell-based
[1] = test system: carbon-starved M. tuberculosis H37Rv; experiment: Non-replicating IC90 determination by luciferase (carbon-starved cells); settings: luciferase; for IC90 / IC99: Mycobacterium tuberculosis, H37RV; for IC90: non-replicating carbon-starved Mtb, three independent experiments in triplicate, read-out: TB Growth Inhibition Activity, IC90 Non-replicating_luciferase; for Against carbon starved non-replicating Mtb IC99 (uM, luciferase) / IC99: None = inhibition did not reach 99%; for IC99: 120 h, read-out: Against carbon starved non-replicating Mtb IC99 (uM, luciferase)
[2] = Cytotoxicity against Hek 293; settings: human, HEK293 cells, 26.0 uM highest concentration measured
[3] = Cytotoxicity against HepG2; settings: human, HepG2 cells, 26.0 uM highest concentration measured
[4] = Cytotoxicity against HeLa; settings: human, HeLa cells, 26.0 uM highest concentration measured
[5] = test system: replicating M. tuberculosis H37Rv; experiment: microbe, parasite or virus in culture; settings: None = inhibition did not reach 90%; for IC90: Mycobacterium tuberculosis, H37RV, read-out: Against Replicating Mtb IC90 (uM, GFP)

Structure (SMILES)	IC90 [5]	IC99 [1]	further results
c1ccc(CSc2ncc(-c3ccccc3)o2)cc1			IC90 [1]: 62 µM; pIC50 [2]: < 4.59; pIC50 [3]: < 4.59; pIC50 [4]: < 4.59
c1ccc(CSc2nnc(-c3ccc(-c4ccccc4)cc3)o2)cc1			pIC50 [2]: < 4.59; pIC50 [3]: < 4.59; pIC50 [4]: < 4.59
CS(=O)(=O)c1ccc(-c2nnc(SCc3ccccc3)o2)cc1			pIC50 [2]: < 4.59; pIC50 [3]: < 4.59; pIC50 [4]: < 4.59
COc1ccccc1CSc1nnc(-c2ccccc2)o1			IC90 [1]: 2 µM; pIC50 [2]: < 4.59; pIC50 [3]: < 4.59; pIC50 [4]: < 4.59
FC(F)(F)c1ccccc1CSc1nnc(-c2ccccc2)o1			IC90 [1]: 1 µM; pIC50 [2]: < 4.59; pIC50 [3]: < 4.59; pIC50 [4]: < 4.59
N#Cc1ccccc1CSc1nnc(-c2ccccc2)o1			IC90 [1]: 4 µM; pIC50 [2]: < 4.59; pIC50 [3]: < 4.59; pIC50 [4]: < 4.59
CS(=O)(=O)c1ccccc1CSc1nnc(-c2ccccc2)o1			pIC50 [2]: < 4.59; pIC50 [3]: < 4.59; pIC50 [4]: < 4.59
COCCNc1nnc(-c2ccc(Cl)cc2)o1	> 500 µM		Against carbon starved non-replicating Mtb IC99 (uM, luciferase) [1]: None
c1ccc(-c2nnc(SCCC3OCCCO3)o2)cc1 [drawing 168]	125 µM	62 µM	
Fc1ccc(CSc2nnc(-c3ccccc3)o2)cc1 [drawing 172]	125 µM		Against carbon starved non-replicating Mtb IC99 (uM, luciferase) [1]: None
COCCSc1nnc(-c2ccccc2)o1 [drawing 175]	125 µM	16 µM	
c1ccc(-c2nnc(SCc3ccccn3)o2)cc1 [drawing 177]	100 µM	31 µM	
c1ccc(-c2nnc(SCc3cccnc3)o2)cc1 [drawing 178]	125 µM	250 µM	
c1ccc(-c2nnc(SCc3ccncc3)o2)cc1 [drawing 179]	250 µM	500 µM	
c1ccc(-c2nnc(SC3CCCCC3)o2)cc1 [drawing 181]	> 500 µM	62 µM	
[O-][n+]1ccccc1CSc1nnc(-c2ccccc2)o1 [drawing 194]	62 µM	125 µM	

Structure (SMILES)	IC90 [5]	IC99 [1]	further results
[O-][S+](Cc1ccccn1)c1nnc(-c2ccc(Cl)cc2)o1 (stereo not shown) [drawing 195]	31 µM	4 µM	
COCC[S+]([O-])c1nnc(-c2ccc(Cl)cc2)o1 (stereo not shown) [drawing 196]	31 µM	31 µM	
Brc1ccc(-c2nnc(SCc3ccccn3)o2)cc1 [drawing 212]	31 µM	8 µM	
[O-][S+](Cc1ccccc1)c1nnc(-c2ccccc2)o1 (stereo not shown) [drawing 213]	125 µM	4 µM	
O=S(=O)(Cc1ccccc1)c1nnc(-c2ccccc2)o1 [drawing 214]	125 µM	16 µM	
Fc1ccc(-c2nnc(SCc3ccccn3)o2)cc1 [drawing 215]	31 µM	62 µM	
Fc1cccc(-c2nnc(SCc3ccccn3)o2)c1 [drawing 216]	31 µM	16 µM	
Brc1cccc(-c2nnc(SCc3ccccn3)o2)c1 [drawing 217]	62 µM	31 µM	
[O-][S+](Cc1cn(Cc2ccccc2)nn1)c1nnc(-c2ccc(Cl)cc2)o1 (stereo not shown) [drawing 223]	62 µM	8 µM	
Clc1ccc(-c2nnc(SCc3cn(Cc4ccccc4)nn3)o2)cc1 [drawing 224]		16 µM	Against Replicating Mtb IC90 (uM, GFP) [5]: None
COc1cccc(-c2nnc(SCc3ccccn3)o2)c1 [drawing 227]	62 µM	16 µM	
COc1ccc(CSc2nnc(-c3ccc(Cl)cc3)o2)nc1 [drawing 228]	31 µM	8 µM	
COC(=O)CCCOc1ccc(CSc2nnc(-c3ccc(Cl)cc3)o2)nc1 [drawing 233]	31 µM	16 µM	
[N-]=[N+]=NCCOCCNC(=O)CCCOc1ccc(CSc2nnc(-c3ccc(Cl)cc3)o2)nc1 [drawing 237]	62 µM	62 µM	
[N-]=[N+]=NCCOCCNC(=O)CCCOc1ccc(C[S+]([O-])c2nnc(-c3ccc(Cl)cc3)o2)nc1 (stereo not shown) [drawing 240]	250 µM	16 µM	
